Laboratory results published in US20250144053A1, “A MIXTURE OF UREA, BIURET AND NITRATE AS A DIETARY NON-PROTEIN NITROGEN-SOURCE FOR RUMINANTS AND USES THEREOF” (Yara International ASA, priority 2022, published 2025).

Columns and labels:
[1] = system: ruminal fluid (rumen microbes); assay: In vitro methane production in batch culture (Example 1); type: cell-based, Angus crossbred steers; details: corn silage-based diet
Description: The in vitro incubations were conducted on three separate days (replicates). A representative sample of digesta was collected from different places in the rumen of ruminally cannulated steers and strained through 4 layers of cheesecloth, placed in pre-warmed thermos containers, and transported to the laboratory within 30 minutes after the collection. In the laboratory, the ruminal fluid from the two steers was maintained under constant CO2-flux and was combined in equal proportions. This combined ruminal fluid was mixed with McDougall's buffer (McDougall, 1948) with and without 0.077 g/liter of 10 wt. % ammonium sulfate enriched with ^15N in relation 1:4, and it was used as an inoculum. […] At the end of the 24 hours incubation, the final pH was recorded, the bottles were placed on ice to prevent further microbial fermentation and two 10-ml samples were collected and acidified by adding 20 μl of a 20 vol/vol % of H2SO4-solution and were frozen at minus 20° C. until further analysis. […]
The amount of methane produced was determined by measuring total gas production and the contribution of methane to it. The production of gas was recorded using an Ankom Gas Monitoring System from Ankom Technologies. […] A gas subsample was analyzed to measure methane concentration and calculate the total methane production during the fermentation. […]

[2] = system: crossbred yearling steers; assay: Animal growth performance with NPN supplementation (Example 2); type: in vivo
Text: A total of 72 crossbred yearling steers [303 kg±29 kg initial body weight (BW) were stratified by body weight (BW) and randomly allocated to three treatments. All steers consumed a basal diet of corn silage, cotton-gin trash, and a premix of vitamins and minerals.
The steers were housed in pens (8 steers/pen, 3 pens/treatment). The steers were supplemented with three different NPN-sources on an isonitrogenous basis, considering as reference the N provided by urea when included at 1 wt. % of the diet in dry matter (DM-basis.
In Table 5, the composition of the basal diet supplemented with three different types of NPN, i.e. urea (Urea) (46% N, Yara International), a mixture of urea and biuret (UB) (41% N) and a mixture of urea, biuret and nitrate according to the present disclosure (“UBN”) (35% N, 21.3% NO3) is shown.
From day −17 to day −16 relative to the beginning of the experimental period, the steers received 20% of their total supplemental NPN.
From day −15 to day −12 relative to the beginning of the experimental period, the steers received 40% of their total supplemental NPN.
From day −11 to day −8 relative to the beginning of the experimental period, the steers received 60% of their total supplemental NPN.
From day −7 to day −3 relative to the beginning of the experimental period, the steers received 80% of their total supplemental NPN.
From day −2 to the beginning of the experimental period (day 0), the steers received 100% of their total supplemental NPN.
The gain to feed ratio (G: F) was computed as the ratio of the average daily gain (ADG) to daily dry matter intake (DMI). The feed intake was recorded daily. The individual intake was determined via the GrowSafe® intake monitoring system. In cattle management, GrowSafe Systems is a commonly used tool to closely monitor individual animal feeding data using radio frequency identification (RFID) tag technology. The animals are equipped with a unique RFID tag that is read by the feed bunks each time the animal lowers its head into the bunk to consume feed. Average daily weight gain (ADG) and feed efficiency were calculated during the performance evaluation. The ADG was determined by the difference between the final BW and the initial BW divided by the number of days of the performance evaluation (56 days). The initial BW was calculated as the average unshrunk BW of heifers on days 16 and 17. The final BW was the average unshrunk BW measured on days 72 and 73. The unshrunk BW was obtained every 14 days.
In Table 6, the effect of NPN supplementation with Urea, UB and UBN on growth performance is shown. More in particular, the initial and the final BW and the ADG, all expressed in kg, the dry matter intake (DMI) expressed in kg/day and in percentage of BW, the gain to feed ratio (G:F) expressed in kg/kg, the net energy of gain (NEg) expressed in Mcal/kg of DM and the plasma urea nitrogen (PUN) expressed in […] are shown.

Structure (SMILES): NC(N)=O [Urea, urea]
- Methane production, mM/g OMd ([1]; per g organic matter digested): 6.86 mM/g OMd
- Methane production, mM/g OMi ([1]; per g organic matter incubated): 1.23 mM/g OMi
- ADG ([2]; days 0-14): 0.78 kg
- G:F ([2]; days 0-14): 0.10 kg/kg
- ADG ([2]; days 0-28): 0.81 kg
- G:F ([2]; days 0-28): 0.11 kg/kg
- G:F ([2]; days 0-42): 0.14 kg/kg
- G:F ([2]; days 0-56): 0.14 kg/kg
- NEg ([2]; net energy of gain): 0.55 Mcal/kg of DM
